According to patent US8247400B2, “Cephem compounds useful for the treatment of bacterial infections” (priority 2009, dated 2012):
Values joined by “and” are separate entries in the source; they are usually repeats but may differ in a detail not shown here. Equal values may be shown once.

How the values were obtained:
[1] = Agar diffusion antibacterial activity; type: cell-based; details: Pseudomonas aureus; for Zone of Inhibition (mm) (average of 3 plates): Compound A approx. 22 μg/disk, Gentamicin 10 mcg per disk, 30-35° C., 2 days
Protocol: (§1) The antibiotic activity of Compound A (as the hydrochloride salt) was tested by Agar Diffusion against the following bacterial strains: Staphylococcus aureus, Salmonella typhimurium, Escherichia coli and Pseudomonas aureus. The antibiotic activity of Compound A was compared to that observed for the antibiotic gentamicin (positive control antibiotic). 0.85% saline solution was used as a negative control. The protocol is provided below. A solution containing Compound A hydrochloride, 20 ug per disk, was added to BBL™ Sensi-Disc™. Fifteen Petri dish filled with an agar medium were prepared a day before their use. These were utilized for testing of 5 microorganisms (4 bacterial species including Staphylococcus aureus, Salmonella typhimurium, Pseudomonas aeruginosa, and Escherichia coli, and one fungus (Candida albicans). Triplicate plates were then streaked with each specific microorganism. Twelve plates to be utilized for antibacterial testing were applied with positive control and negative control discs. Positive control discs are impregnated with gentamycin and are available from Becton, Dickinson and Co (ready to be used cartridges, “BBL™ Sensi-Disc™ Antimicrobial Susceptibility Test Discs”). Negative control discs were prepared by soaking dry disks with normal saline solution. These discs were applied by means of a BBL™ dispenser, using aseptic precautions. The remaining (three) plates to be utilized for antifungal properties were also applied with positive and negative controls; however, in this case positive control discs were impregnated with nystatin (available as BBL™ Taxo™ Nystatin Discs Cartridge from BD & Co). Fifteen dry discs (identical to those of positive and negative control discs but with unique identification print on one side, “NY”) were soaked with a solution of Compound A hydrochloride for about 5 minutes. The discs were then carefully transferred (using a sterile forceps) to a sterile empty Petri dish to decant off any excess test solution. Then one disc was applied to each of fifteen plates that were previously applied with positive and negative controls. The approximate loading of compound A was 22 μg/disk. Triplicate plates for each microorganism were assembled together and properly labeled prior to incubation. Plates for antibacterial testing were incubated at 30-35° C. (for 2 days) while for antifungal testing plates were incubated at 24° C. Plates were read for zones of inhibition using Vernier calipers.

Staphylococcus aureus = experiment: Agar diffusion antibacterial activity; type: cell-based; details: for Zone of Inhibition (mm) (average of 3 plates): Compound A approx. 22 μg/disk, Gentamicin 10 mcg per disk, 30-35° C., 2 days
Protocol: as §1

Escherichia coli = experiment: Agar diffusion antibacterial activity; type: cell-based; details: for Zone of Inhibition (mm) (average of 3 plates): Compound A approx. 22 μg/disk, Gentamicin 10 mcg per disk, 30-35° C., 2 days
Protocol: as §1

Salmonella typhimurium = experiment: Agar diffusion antibacterial activity; type: cell-based; details: for Zone of Inhibition (mm) (average of 3 plates): Compound A approx. 22 μg/disk, Gentamicin 10 mcg per disk, 30-35° C., 2 days
Protocol: as §1

rats (CD® strain) = experiment: Four-week intravenous toxicity study in rats; type: in vivo; details: 9 mg/kg/day, over a period of 28 days
Protocol: The potential toxicity of an intravenously administered formulation of Compound A (average concentration analysis=95.6%) was studied for four weeks in rats (CD® strain). The vehicle (L-arginine dissolved in saline, 21.7 mg/ml), control (saline solution) and test solutions were administered by an intravenous infusion in the cannulated femoral vein through a dosing port. The dose was administered once per day at approximately the same time (±2 hours) each day throughout the duration of the study. The dose volume was 10 ml/kg per day. All doses were administered using a syringe infusion pump set for the appropriate infusion rate to deliver the proper dose volume over the required infusion duration of 15 minutes. All animals across all groups were examined prior to exposure and all the main study survivors were examined again at the end of study. […] Detailed clinical examinations were made for each animal daily during treatment (approx 30 to 60 minutes post-dosing).

[2] = Solubility of Compound A in solvent mixtures; type: physicochemical
[3] = pH solubility profile of Compound A in USP buffers at room temperature; type: physicochemical; details: for Approximate Solubility: room temperature
Protocol: Testing was conducted using a reciprocating platform shaker (Heidolph® Promax 1020).

[4] = Room temperature stability of the 1.0 mg/ml parenteral dosage form with L-arginine (Table 10); type: physicochemical; details: for % Assay / pH: 1 mg/ml solution with L-arginine in normal saline (Table 10)
Protocol: An example of a dosage form containing 1.0 mg/ml of Compound A hydrochloride that is suitable for parenteral (e.g., IM or IV) administration is provided in Table 10. The L-arginine was dissolved in saline and the pH of the solution was adjusted to ˜8.0 using 0.05N HCl. Compound A was then added and the pH of the solution was adjusted to ˜7.40. The solution was then filtered through a 0.22 μm filter.

[5] = test system: human peripheral blood lymphocytes (HPBL); experiment: In vitro mammalian chromosome aberration test; type: cell-based; details: vehicle DMSO, maximum concentration 5000 μg/ml
Excerpt: [B] In Vitro Mammalian Chromosome Aberration Test
The purpose of this study was to evaluate the clastogenic potential of a test article based upon its ability to induce chromosome aberrations in human peripheral blood lymphocytes (HPBL).
Negative: Test Article Solvent (or Vehicle)
Positive: Mitomycin C (MMC, CAS number 50-07-7)
Cyclophosphamide (CP, CAS number 6055-19-2)

[6] = Room temperature stability of the 4.20 mg/ml Compound A dosage form (Table 8); type: physicochemical
Protocol: An example of a dosage form containing 4.20 mg/ml of Compound A that is suitable for parenteral (e.g., IM or IV) administration is provided in Table 8. The propylene glycol, PEG-300 and ethanol were added to a volumetric flask and mixed. The acetate buffer pH 5.0 (1M) was then added q.s to volume and the contents of the flask were mixed. Compound A was added to a separate clear dry volumetric flask. Approximately ⅓ of the total propylene glycol, PEG-300 and ethanol mixture was added and the resulting mixture was shaken vigorously for 2 minutes. The remainder of the mixture was then added to the flask to make up the volume. The contents were mixed by gentle shaking or by sonication until a clear solution was obtained. The solution was then filtered through a 0.22μ filter (Millex® GV) using a sterile disposable syringe or vial.

[7] = test system: thymidine kinase locus of L5178Y mouse lymphoma cells; details: vehicle DMSO, maximum concentration 5000 μg/ml
Protocol: In vitro genotoxicity studies were conducted as a mouse lymphoma study and a chromosomal aberration test. The vehicle was DMSO and the maximum concentration to be tested was 5000 μg/ml for both studies.
In Vitro Mammalian Cell Gene Mutation Test
(L5178Y/TK^+/− Mouse Lymphoma Assay)
The purpose of this study was to evaluate the genotoxic potential of the test article based on quantitation of forward mutations at the thymidine kinase locus of L5178Y mouse lymphoma cells and the sizing of the resulting colonies.
Negative: Test article solvent (or vehicle)
Positive: Methyl methanesulfonate (MMS)
7,12-dimethylbenz(a)anthracene (DMBA)

[8] = versus Gentamicin (10 mcg per disk)
[9] = pH 7.0 (0.1 M Potassium Phosphate)
[10] = pH 9.0 (0.1 M Potassium phosphate)
[11] = 4.20 mg/ml Compound A in propylene glycol/ethanol/PEG-300/acetate buffer pH 5.0 (Table 8), batches 1-4

Compound: CCO/N=C(\C(=O)N[C@@H]1C(=O)N2C(C(=O)[O-])=C(Sc3nc(-c4cc[n+](C)cc4)cs3)CS[C@H]12)c1nsc(NC(C)=O)n1.Cl [Compound A hydrochloride, (6R,7R)-7-[[(2Z)-2-(ethoxyimino)-2-[5-(acetamido)-1,2,4-thiadiazol-3-yl]acetyl]amino]-3-[[4-(1-methylpyridini-1-ium-4-yl)-1,3-thiazol-2-yl]sulfanyl]-8-oxo-5-thia-1-azabicylo[4.2.0]oct-2-ene-2-carboxylate hydrochloride]
- antibacterial activity (in words) [1]: moderate activity
- Zone of Inhibition (mm) (average of 3 plates) [1]: 9.68 mm
- Zone of Inhibition (mm) (average of 3 plates) (Staphylococcus aureus): 36.71 mm
- antibacterial activity relative to Gentamicin (Staphylococcus aureus; [8]): 173%
- Zone of Inhibition (mm) (average of 3 plates) (Escherichia coli): 23.82 mm
- antibacterial activity relative to Gentamicin (Escherichia coli; [8]): 118%
- Zone of Inhibition (mm) (average of 3 plates) (Salmonella typhimurium): 21.12 mm
- antibacterial activity relative to Gentamicin (Salmonella typhimurium; [8]): 117%

Compound: CCO/N=C(\C(=O)N[C@@H]1C(=O)N2C(C(=O)[O-])=C(Sc3nc(-c4cc[n+](C)cc4)cs3)CS[C@H]12)c1nsc(NC(C)=O)n1 [Compound A, (6R,7R)-7-[[(2Z)-2-(ethoxyimino)-2-[5-(acetamido)-1,2,4-thiadiazol-3-yl]acetyl]amino]-3-[[4-(1-methylpyridinium-4-yl)-1,3-thiazol-2-yl]sulfanyl]-8-oxo-5-thia-1-azabicylo[4.2.0]oct-2ene-2-carboxylate]
- adverse clinical events (rats (CD® strain)): did not show any adverse clinical events
- Approximate Solubility ([2]; 8% Propylene Glycol, 2% Ethanol, 2% PEG-300, 5% 1-Methyl-2-pyrrolidinone, 83% Acetate buffer pH 5 (1M)): 2000 µg/mL
- Approximate Solubility ([2]; 8% Propylene Glycol, 2% Ethanol, 2% PEG-300, 88% Acetate buffer pH 5 (1M)): 1800 µg/mL
- Approximate Solubility ([2]; 8% Propylene Glycol, 2% Ethanol, 5% Benzyl alcohol, 85% Acetate buffer pH 5 (1M) (first entry, r11)): 1500 µg/mL
- Approximate Solubility ([2]; 8% Propylene Glycol, 2% Ethanol, 5% Benzyl alcohol, 85% Acetate buffer pH 5 (1M) (second entry, r17)): 3500 µg/mL
- Approximate Solubility ([2]; 8% Propylene Glycol, 2% Ethanol, 90% Acetate buffer pH 5 (1M)): 1500 µg/mL
- Approximate Solubility ([2]; 8% Propylene Glycol, 2% PEG-300, 5% Benzyl alcohol, 85% Acetate buffer pH 5 (1M)): 4000 µg/mL
- Approximate Solubility ([2]; 8% Propylene Glycol, 9% PEG-300, 83% Acetate buffer pH 5 (1M)): 1100 µg/mL
- Approximate Solubility ([2]; 10% Sodium benzoate in Normal Saline, pH 6.5): 4200 µg/mL
- Approximate Solubility ([2]; 10% Sodium benzoate in water, pH 6.3): 4200 µg/mL
- Approximate Solubility ([2]; 40% Propylene Glycol, 2.5% Ethanol, 57.5% Acetate buffer pH 5): 4200 µg/mL
- Approximate Solubility ([2]; 60% Propylene Glycol, 2.5% Ethanol, 37.5% Acetate buffer pH 5): >25000 µg/mL
- Approximate Solubility ([2]; Dimethyl sulfoxide (DMSO)): 212000 µg/mL
- Approximate Solubility ([2]; Ethanol): 1500 µg/mL
- Approximate Solubility ([2]; Methanol): 400000 µg/mL
- Approximate Solubility ([2]; Sterile water for injection USP): 800 µg/mL
- Description ([3]; pH 1.0 (0.2 M KCl—HCl)): Solution
- Approximate Solubility ([3]; pH 1.0 (0.2 M KCl—HCl)): 500 µg/mL
- Description ([3]; pH 3.0 (0.1 M Sodium acetate)): Solution
- Approximate Solubility ([3]; pH 3.0 (0.1 M Sodium acetate)): 4700 µg/mL
- Description ([3]; pH 5.0 (0.05 M Sodium acetate)): Gel
- Approximate Solubility ([3]; pH 5.0 (0.05 M Sodium acetate)): 800 µg/mL
- Description ([3]; pH 5.0 (0.1 M Sodium acetate)): Gel
- Approximate Solubility ([3]; pH 5.0 (0.1 M Sodium acetate)): 400 µg/mL
- Description ([3]; pH 5.0 (0.5 M Sodium acetate)): Gel
- Approximate Solubility ([3]; pH 5.0 (0.5 M Sodium acetate)): 500 µg/mL
- Description [3, 9]: Gel
- Approximate Solubility [3, 9]: 400 µg/mL
- Description [3, 10]: Solution
- Approximate Solubility [3, 10]: 13300 µg/mL
- % Assay ([4]; 2 hours): 95.3%
- pH ([4]; 2 hours): 7.34
- % Assay ([4]; 4 hours): 95.1%
- pH ([4]; 4 hours): 7.41
- % Assay ([4]; Initial): 95.7%
- pH ([4]; Initial): 7.35
- stability of the solution (in words) ([4]; solution containing 1 mg/ml of Compound A): stable
- genotoxicity result, chromosomal aberration study using human lymphocytes [5]: negative
- Initial Assay (%) [6, 11]: 99.2% and 101.3% and 100.5% and 98.5%
- Initial pH [6, 11]: 6.06 and 6.08 and 6.13
- Final Assay (%) ([6]; 4.20 mg/ml Compound A solution (Table 8), 3 hrs at RT, batch 4): 96.9 (3 hrs at RT) %
- Final Assay (%) ([6]; 4.20 mg/ml Compound A solution (Table 8), 5 hrs at RT, batches 2 and 3): 97.9 (5 hrs at RT) % and 95.6 (5 hrs at RT) %
- Final pH ([6]; 4.20 mg/ml Compound A solution (Table 8), batch 4, 3 hrs at RT): 5.99
- genotoxicity result, mouse lymphoma study [7]: negative

Compound: Gentamicin [reference compound]
- Zone of Inhibition (mm) (average of 3 plates) [1]: 20.17 mm
- Zone of Inhibition (mm) (average of 3 plates) (Staphylococcus aureus): 21.27 mm
- Zone of Inhibition (mm) (average of 3 plates) (Escherichia coli): 20.27 mm
- Zone of Inhibition (mm) (average of 3 plates) (Salmonella typhimurium): 18.03 mm
